# Measurements taken from ChEMBL document CHEMBL1649222, “In vitro antibacterial activity of acyl-lysyl oligomers against Helicobacter pylori” (Antimicrob Agents Chemother, 2009).
# Calls of active or inactive are those of the source. The rule behind the calls is not given here. Non-standard residues stand in square brackets, D forms with d. Residues, ends and D or L forms follow the SMILES beside them. *: point of attachment. Lauroyl = CCCCCCCCCCCC(=O)*; 12Ado = NCCCCCCCCCCCC(=O)O
# Tests used:
# Helicobacter pylori [1] = test: Antimicrobial activity against Helicobacter pylori G27; assay type: functional
# Helicobacter pylori [2] = test: Antimicrobial activity against Helicobacter pylori 7.13; assay type: functional
# Helicobacter pylori [3] = test: Antimicrobial activity against Helicobacter pylori J99; assay type: functional
# Helicobacter pylori [4] = test: Antimicrobial activity against Helicobacter pylori HPAG1; assay type: functional
# Helicobacter pylori [5] = test: Antimicrobial activity against Helicobacter pylori SS1; assay type: functional
# [6] = Antimicrobial activity against Helicobacter pylori 26695; assay type: functional
# Helicobacter pylori [7] = test: Bactericidal activity against Helicobacter pylori G27 at 40 uM after 10 hrs; assay type: functional
# Helicobacter pylori [8] = test: Bactericidal activity against Helicobacter pylori 7.13 at 40 uM after 10 hrs; assay type: functional, organism-based
# Helicobacter pylori [9] = test: Bactericidal activity against Helicobacter pylori J99 at 40 uM after 10 hrs; assay type: functional
# Helicobacter pylori [10] = test: Antimicrobial activity against Helicobacter pylori G27 at MBC by time-kill analysis; assay type: functional
# Helicobacter pylori [11] = test: Antimicrobial activity against Helicobacter pylori 7.13 at MBC by time-kill analysis; assay type: functional
# Helicobacter pylori [12] = test: Antimicrobial activity against Helicobacter pylori J99 at MBC by time-kill analysis; assay type: functional
# Helicobacter pylori [13] = test: Antimicrobial activity against Helicobacter pylori G27 at 2 times MBC by time-kill analysis; assay type: functional
# Helicobacter pylori [14] = test: Antimicrobial activity against Helicobacter pylori 7.13 at 2 times MBC by time-kill analysis; assay type: functional
# Helicobacter pylori [15] = test: Antimicrobial activity against Helicobacter pylori J99 at 2 times MBC by time-kill analysis; assay type: functional
# Helicobacter pylori [16] = test: Bactericidal activity against Helicobacter pylori G27 preincubated at 4 degC for 1 hr; assay type: functional
# Helicobacter pylori [17] = test: Bactericidal activity against Helicobacter pylori G27 preincubated at 50 degC for 1 hr; assay type: functional
# Helicobacter pylori [18] = test: Bactericidal activity against Helicobacter pylori G27 preincubated at 55 degC for 1 hr; assay type: functional
# Helicobacter pylori [19] = test: Bactericidal activity against Helicobacter pylori G27 preincubated at 60 degC for 1 hr; assay type: functional
# Helicobacter pylori [20] = test: Bactericidal activity against Helicobacter pylori G27 preincubated at 95 degC for 1 hr; assay type: functional
# Helicobacter pylori [21] = test: Bactericidal activity against Helicobacter pylori G27 preincubated at 37 degC for 1 hr; assay type: functional
# Helicobacter pylori [22] = test: Bactericidal activity against Helicobacter pylori G27 preincubated at 42 degC for 1 hr; assay type: functional
# Helicobacter pylori [23] = test: Bactericidal activity against Helicobacter pylori G27 at pH 4.5; assay type: functional
# Helicobacter pylori [24] = test: Bactericidal activity against Helicobacter pylori G27 at pH 6.9; assay type: functional
# [25] = Toxicity in horse erythrocytes assessed as hemolytic activity at 0.625 to 40 uM; assay type: cell-based, Equus caballus; conditions: erythrocyte
# [26] = Toxicity in horse erythrocytes assessed as hemolytic activity at 80 uM; assay type: cell-based, Equus caballus; conditions: erythrocyte
compound,measurement,setting,value
CCCCCCCCCCCC(=O)N[C@@H](CCCCN)C(=O)N[C@@H](CCCCN)C(=O)NCCCCCCCCCCCC(=O)N[C@@H](CCCCN)C(=O)N[C@@H](CCCCN)C(=O)NCCCCCCCCCCCC(=O)N[C@@H](CCCCN)C(N)=O (Lauroyl-KK[12Ado]KK[12Ado]K-NH2),MBC,Helicobacter pylori [1],15 µM
same,MIC,Helicobacter pylori [1],6.5 µM
same,MBC,Helicobacter pylori [2],14.5 µM
same,MIC,Helicobacter pylori [2],< 9 µM
same,MBC,Helicobacter pylori [3],20 µM
same,MIC,Helicobacter pylori [3],10.5 µM
same,MBC,Helicobacter pylori [4],40 µM
same,MIC,Helicobacter pylori [4],10.5 µM
same,MBC,Helicobacter pylori [5],45 µM
same,MIC,Helicobacter pylori [5],25.5 µM
same,MBC,[6],70 µM
same,MIC,[6],25 µM
same,Activity,Helicobacter pylori [7],Active
same,Activity,Helicobacter pylori [8],Active
same,Activity,Helicobacter pylori [9],Active
same,Time,Helicobacter pylori [10],6.1 h
same,Time,Helicobacter pylori [11],6.1 h
same,Time,Helicobacter pylori [12],3.8 h
same,Time,Helicobacter pylori [13],2.7 h
same,Time,Helicobacter pylori [14],3.5 h
same,Time,Helicobacter pylori [15],1.8 h
same,Activity,Helicobacter pylori [16],Active
same,Activity,Helicobacter pylori [17],Active
same,Activity,Helicobacter pylori [18],Active
same,Activity,Helicobacter pylori [19],Active
same,Activity,Helicobacter pylori [20],Active
same,Activity,Helicobacter pylori [21],Active
same,Activity,Helicobacter pylori [22],Active
same,Activity,Helicobacter pylori [23],inactive
same,Activity,Helicobacter pylori [24],Active
same,Activity,[25],Non-toxic
same,Activity,[26],Toxic
CCCCCCCCCCCC(=O)N[C@@H](CCCCN)C(=O)NCCCCCCCC(=O)N[C@@H](CCCCN)C(=O)NCCCCCCCC(=O)N[C@@H](CCCCN)C(=O)NCCCCCCCC(=O)N[C@@H](CCCCN)C(=O)NCCCCCCCC(=O)N[C@@H](CCCCN)C(=O)NCCCCCCCC(=O)N[C@@H](CCCCN)C(=O)NCCCCCCCC(=O)N[C@@H](CCCCN)C(=O)NCCCCCCCC(=O)N[C@@H](CCCCN)C(N)=O,MBC,Helicobacter pylori [1],> 100 µM
same,MIC,Helicobacter pylori [1],25 µM
CCCCCCCCCCCC(=O)N[C@@H](CCCCN)C(=O)NCCCCCCCC(=O)N[C@@H](CCCCN)C(=O)NCCCCCCCC(=O)N[C@@H](CCCCN)C(=O)NCCCCCCCC(=O)N[C@@H](CCCCN)C(=O)NCCCCCCCC(=O)N[C@@H](CCCCN)C(=O)NCCCCCCCC(=O)N[C@@H](CCCCN)C(N)=O,MBC,Helicobacter pylori [1],> 100 µM
same,MIC,Helicobacter pylori [1],25 µM
